From patent publication US20210347813A1, “COMPOUNDS WITH HIV MATURATION INHIBITORY ACTIVITY” (priority 2018, published 2021)

What was measured:
[1] = tested on: HIV; settings: cited from earlier work
[2] = Rat PK after single intramuscular (IM) administration of prodrugs, parent MI #1 measured in plasma; format: in vivo; set-up: unit not given here; settings: male SD rats, IM 20 mg/kg
Description: FIG. 2 is a concentration vs time curve of the plasma concentrations of parent MI #1 following a single Intramuscular (IM) administration of the Prodrugs and parent MI #1 to male SD rats. […] Additional pharmacokinetic data collected from the same experiments summarized in FIG. 2 is contained in the table below.
Animal strain: Sprague Dawley (SD) rat, purchased from Shanghai SLAC Laboratory Animal Co., Ltd. Sex: male; Age: 6-8 weeks; BW: 200-250 g, N=30 rats (N=3 per prodrug); Food status: Free access to food and water for the entire in-life phase.
Dose: 20 mg/kg (2 mL/kg, 10 mg/mL), IM injection; Formulation: 1% Kolliphor P188+4.5% Mannitol+94.5% Milli-Q Water;
N=3 rats/time point for each compound via IM administration
Sampling at 0.5, 1, 3, 5 and 7 hr, 1, 2, 3, 4, 5, 6 and 7 days post dose then 2×/week for a total of 8 weeks, 12*8 time points, serial bleeding for plasma only.
* Weekly interim analysis of the plasma samples (12 time points) to get an early read on the PK of the construct Blood collection and processing: The animal was restrained manually and approximately 150 μL blood per time point was collected in tubes containing K2EDTA anticoagulant. The sample was centrifuged at 2200 g for 10 min at 2-8° C. for plasma. The plasma samples were stored immediately at −70° C.
LC-MS/MS method was developed to quantitate both prodrugs and parent in plasma. The samples were analyzed in duplicate. Two sets of standard curves and three levels of QCs were run in each plate. Both the standards and QCs were run in duplicate.
WinNonlin V 6.4 statistics software (Pharsight Corporation, California, USA) was used to generate pharmacokinetics parameters (Tmax, Cmax, T1/2, AUC, MRT etc).

[3] = Mouse PK after subcutaneous (SQ) suspension doses, MI #3 measured in plasma; format: in vivo; settings: male CD-1 mice, SQ 20 mg/kg suspension, MI Parent #3 measured in plasma
Protocol: FIG. 1 is a graph of concentration vs. time from plasma of MI #3 in ng/mL vs time in hours following subcutaneous (SQ) doses of MI3 # or the prodrugs from Examples 3, 4, and 5 as suspensions in 1% Kolliphor P 188/2% PEG 3350/3.5% Mannitol/93.5% water at 20 mg/kg to male CD-1 mice. […] Exposure of Parent MI #3 decreased 23-fold, 16-fold, and 3-fold after administration of Example 3, 4 and 5, respectively. The presence of the prodrugs was not observed in plasma. Although the exposure is lower than when dosed with parent itself, the half-life of Parent MI #3 is longer after administration of all three prodrugs showing the potential to be useful for less frequent dosing.
Subcutaneous (SQ) doses of each of the compounds from Examples 3, 4, and 5 as suspensions (Dose conc. 4 mg/mL, Dose volume 5 mL/kg) in 1% Kolliphor P 188/2% PEG 3350/3.5% Mannitol/93.5% water at 20 mg/kg to 3 male CD-1 mice (Cr1:CD1 (ICR)) Charles River Laboratories, 25-30gs at dose initiation, age as appropriate for weight. The concentration of Parent MI #3 and prodrugs were measured in the plasma of animals of all three groups at time points of 0.5, 1, 3, 5, 7, 24, 48, 72, 96, 120, 144, and 168 hours. The collection conditions were K2EDTA and the volume/timepoint was 30 μL. The presence of the prodrugs was not observed in plasma for any group.
LC-MS/MS methods were developed to quantitate both prodrugs and parent in plasma. The samples were analyzed in duplicate. Two sets of standard curves and three levels of QCs were run in each plate. Both the standards and QCs were run in duplicate. The table below is a summary of the protocols and guidance that was supplied to the scientists who carried out the experiments.

[4] = Single dose mouse PK study, oral dose of prodrug or parent, parent MI #3 measured; format: in vivo; settings: male CD1 mice, PO 5 mg/kg
Protocol: A single dose mouse PK study was conducted following an oral dose of the prodrug that was prepared as Example 1, being dosed and measuring parent maturation inhibitor (MI) #3, and compared to PK parameters with Parent MI #3 being dosed in male CD1 mice. In the current study, the formulation for parent MI #3 was 0.5% Methocel A4M:0.1% Tween 80:99.4% water. For the prodrug of Example 1, the formulation was 2% Dimethylacetamide:10% ethanol: 87.5% PEG 400:0.5% Tween 80.
Following oral administration of the prodrug, all prodrug concentrations at all timepoints were BLQ. As shown in the table below the exposure of the parent MI #3 obtained from dosing the prodrug was higher than that seen with dosing a crystalline suspension of the parent MI #3.

[5] = MI Parent #3 mouse PK, IV solution; format: in vivo; settings: dose 1 (printed mg)

Compound: C=C(C)[C@@H]1CC[C@]2(C(=O)O)CC[C@]3(C)[C@H](CC[C@@H]4[C@@]5(C)CC[C@H](OC(=O)CC(C)(C)C(=O)O)C(C)(C)[C@@H]5CC[C@]43C)[C@@H]12 [Bevirimat]
- reduction of HIV viral load (mean) ([1]; patients with trough levels >=20 μg/mL and no key baseline Gag polymorphisms at Q369, V370 or T371): 1.3 log10/mL
- viral load reduction vs patients without Gag polymorphisms ([1]; users with Gag polymorphisms at Q369, V370 or T371): significantly lower load reductions

Compound: C=C(C)[C@@H]1CC[C@]2(NCCN3CCS(=O)(=O)CC3)CC[C@]3(C)[C@H](CC[C@@H]4[C@@]5(C)CC=C(C6=CC[C@@](CF)(C(=O)OCOC(=O)CCCCCCC)CC6)C(C)(C)[C@@H]5CC[C@]43C)[C@@H]12 [Example 19, (Octanoyloxy)methyl (R)-4-((1R,3aS,5aR,5bR,7aR,11aS,11bR,13aR,13bR)-3a-((2-(1,1-dioxidothiomorpholino)ethyl)amino)-5a,5b,8,8,11a-pentamethyl-1-(prop-1-en-2-yl)-2,3,3a,4,5,5a,5b,6,7,7a,8,11,11a,11b,12,13,13a,13b-octadecahydro-1H-cyclopenta[a]chrysen-9-yl)-1-(fluoromethyl)cyclohex-3-ene-1-carboxylate]
- AUCINF (day) [2]: 1393

Compound: C=C(C)[C@@H]1CC[C@]2(NCCN3CCS(=O)(=O)CC3)CC[C@]3(C)[C@H](CC[C@@H]4[C@@]5(C)CC=C(C6=CC[C@@](CF)(C(=O)OCOC(=O)C(C)C)CC6)C(C)(C)[C@@H]5CC[C@]43C)[C@@H]12 [Example 21, (Isobutyryloxy)methyl (R)-4-((1R,3aS,5aR,5bR,7aR,11aS,11bR,13aR,13bR)-3a-((2-(1,1-dioxidothiomorpholino)ethyl)amino)-5a,5b,8,8,11a-pentamethyl-1-(prop-1-en-2-yl)-2,3,3a,4,5,5a,5b,6,7,7a,8,11,11a,11b,12,13,13a,13b-octadecahydro-1H-cyclopenta[a]chrysen-9-yl)-1-(fluoromethyl)cyclohex-3-ene-1-carboxylate]
- AUCINF (day) [2]: 1682

Compound: C=C(C)[C@@H]1CC[C@]2(NCCN3CCS(=O)(=O)CC3)CC[C@]3(C)[C@H](CC[C@@H]4[C@@]5(C)CC=C(C6=CC[C@@](CF)(C(=O)OCOC(=O)CCCCC)CC6)C(C)(C)[C@@H]5CC[C@]43C)[C@@H]12 [Example 18, (Hexanoyloxy)methyl (R)-4-((1R,3aS,5aR,5bR,7aR,11aS,11bR,13aR,13bR)-3a-((2-(1,1-dioxidothiomorpholino)ethyl)amino)-5a,5b,8,8,11a-pentamethyl-1-(prop-1-en-2-yl)-2,3,3a,4,5,5a,5b,6,7,7a,8,11,11a,11b,12,13,13a,13b-octadecahydro-1H-cyclopenta[a]chrysen-9-yl)-1-(fluoromethyl)cyclohex-3-ene-1-carboxylate]
- AUCINF (day) [2]: 2100

Compound: C=C(C)[C@@H]1CC[C@]2(NCC[C@]3(O)CC[C@@H](S(C)(=O)=O)CC3)CC[C@]3(C)[C@H](CC[C@@H]4[C@@]5(C)CC=C(C6=CC[C@@](COc7ncccc7C#N)(C(=O)O)CC6)C(C)(C)[C@@H]5CC[C@]43C)[C@@H]12 [Parent MI #3, (S)-1-(((3-cyanopyridin-2-yl)oxy)methyl)-4-((1R,3aS,5aR,5bR,7aR,11aS,11bR,13aR,13bR)-3a-((2-((1s,4R)-1-hydroxy-4-(methylsulfonyl)cyclohexyl)ethyl)amino)-5a,5b,8,8,11a-pentamethyl-1-(prop-1-en-2-yl)-2,3,3a,4,5,5a,5b,6,7,7a,8,11,11a,11b,12,13,13a,13b-octadecahydro-1H-cyclopenta[a]chrysen-9-yl)cyclohex-3-enecarboxylic acid]
- %AUCextra [3]: 12.3%
- AUClast [3]: 449442 ng·h/mL
- AUCtot [3]: 515257 ng·h/mL
- Bioavailability [3]: 35 % F
- Cmax [3]: 6563 ng/mL
- t(1/2) [3]: 58.3 h
- AUC0-24h norm [4]: 3.7 μg/mL *h/dose
- AUC0-last [4]: 18000 ng·h/mL
- Bioavailability [4]: 5.0 % F
- C24 [4]: 0.03 µg/mL
- Cmax [4]: 1300 ng/mL
- Tmax [4]: 4.7 h
- %AUCextra [5]: 24.8%
- AUClast [5]: 64197 ng·h/mL
- AUCtot [5]: 87808 ng·h/mL
- Clearance [5]: 0.20 mL/min/kg
- MRT [5]: 22.2 h
- Vss [5]: 0.25 L/kg
- t(1/2) [5]: 16.3 h
